How the values were obtained:
Assay type in all cases: in vivo
[1] = system: field corn (variety: PIONEERDENT 30N34); assay: Test Example 5: above-ground height of field corn, agricultural field, 300 L/ha; details: dose 30 g/ha; (c) polyoxyethylene hydrogenated castor oil 0.020 w/v %; 14th day
Protocol: In an agricultural field having seeds of field corn (variety: PIONEERDENT 30N34, variety highly susceptible to component (a)) sown, when the field corn reached 3.1 to 3.5 leaf stage, an oil-based suspension containing the component (a) and the component (c) (polyoxyethylene hydrogenated castor oil), and a wettable powder containing the component (b) were diluted with water in an amount corresponding to 300 L/ha to prepare spray solutions, which were applied to foliage with a Teejet 80015VS nozzle. The concentration of the component (c) in the spray solution was 0.020 weight/volume percent. On the 14th day after the foliar application, the above-ground height of the field corn was measured, and the height ratio was calculated in accordance with the following formula. The above-ground height in the untreated plot was 76.7 cm.
Height ratio (%) =(above-ground height in the treated plot)/(above-ground height in the untreated plot)×100

[2] = system: field corn (variety: SNOWDENT SH2933); assay: Test Example 6: above-ground height of field corn, pot, 300 L/ha; details: dose 30 g/ha; (c) sodium polyoxyethylene alkyl ether phosphate 0.033 w/v %; 14th day
Protocol: On the 14th day after the foliar application, the above-ground height of the field corn was measured, and the height ratio was calculated in accordance with the following formula.
Height ratio (%)=(above-ground height in the treated plot)/(above-ground height in the untreated plot) ×100

[3] = system: field corn (variety: PIONEERDENT 30N34); assay: Test Example 4: above-ground height of field corn, pot, 300 L/ha; details: dose 120 g/ha; (c) polyoxyethylene hydrogenated castor oil 0.08 w/v %; 14th day
Protocol: Upland field soil was put into a […] hectare pot, and seeds of field corn (variety: PIONEERDENT 30N34, variety highly susceptible to component (a)) were sown. When the field corn reached 3.5 to 4.0 leaf stage, an oil-based suspension containing the component (a) and the component (c) (polyoxyethylene hydrogenated castor oil), and a wettable powder containing the component (b) were diluted with water in an amount corresponding to 300 L/ha to prepare spray solutions. The concentration of the component (c) in the spray solution was 0.08 weight/volume percent. The spray solutions were applied to foliage with a small sprayer. On the 14th day after the foliar application, the above-ground height of the field corn was measured, and the height ratio was calculated in accordance with the following formula. The above-ground height in the untreated plot was 75.8 cm.
(§1) Height ratio (%)=(above-ground height in the treated plot)/(above-ground height in the untreated plot)×100

[4] = system: field corn (variety: SNOWDENT SH2933); assay: Test Example 8: above-ground height of field corn, agricultural field, 500 L/ha; details: 28th day
Protocol: On the 28th day after the foliar application , the above-ground height of the field corn was measured, and the height ratio was calculated in accordance with the following formula.
as §1

[5] = system: field corn (variety: SNOWDENT SH2933); assay: Test Example 7: above-ground height of field corn, agricultural field, 200 L/ha; details: 27th day
Protocol: On the 27th day after the foliar application, the above-ground height of the field corn was measured, and the height ratio was calculated in accordance with the following formula.
as §1

[6] = dose 60 g/ha, (c) sodium polyoxyethylene alkyl ether phosphate 0.04 w/v %
[7] = dose 90 g/ha, (c) sodium polyoxyethylene alkyl ether phosphate 0.06 w/v %
[8] = dose 120 g/ha, (c) sodium polyoxyethylene alkyl ether phosphate 0.08 w/v %
[9] = dose 20 g/ha, (c) polyoxyethylene hydrogenated castor oil 0.02 w/v %
[10] = dose 30 g/ha, (c) polyoxyethylene hydrogenated castor oil 0.03 w/v %
[11] = dose 40 g/ha, (c) polyoxyethylene hydrogenated castor oil 0.04 w/v %
[12] = dose 60 g/ha, (c) polyoxyethylene hydrogenated castor oil 0.06 w/v %
[13] = dose 80 g/ha, (c) polyoxyethylene hydrogenated castor oil 0.08 w/v %
[14] = dose 120 g/ha, (c) polyoxyethylene hydrogenated castor oil 0.12 w/v %

What does the source list for `COc1cc(OC)nc(NC(=O)NS(=O)(=O)c2ncccc2C(=O)N(C)C)n1` [Component (a), nicosulfuron]?
Above-ground height [1]: 66.6 cm; Height ratio [1]: 87%; Above-ground height [2]: 46.8 cm; Height ratio [2]: 75%; Above-ground height [3]: 41.3 cm; Height ratio [3]: 55%; Above-ground height [4, 6]: 107.2 cm; Height ratio [4, 6]: 81%; Above-ground height [4, 7]: 88.6 cm; Height ratio [4, 7]: 67%; Above-ground height [4, 8]: 86.3 cm; Height ratio [4, 8]: 65%; Above-ground height [5, 9]: 125.5 cm; Height ratio [5, 9]: 86%; Above-ground height [5, 10]: 124.0 cm; Height ratio [5, 10]: 84%; Above-ground height [5, 11]: 129.9 cm; Height ratio [5, 11]: 88%; Above-ground height [5, 12]: 122.3 cm; Height ratio [5, 12]: 83%; Above-ground height [5, 13]: 110.7 cm; Height ratio [5, 13]: 75%; Above-ground height [5, 14]: 107.4 cm; Height ratio [5, 14]: 73%

Source: patent US20230028403A1, “METHOD WHICH BRINGS BENEFITS TO HEALTH AND/OR GROWTH OF USEFUL PLANTS” (ISHIHARA SANGYO KAISHA, LTD., priority 2019, published 2023)
